Reference: patent publication US20230123334A1, “AMINO LIPID COMPOUND, PREPARATION METHOD THEREFOR, AND APPLICATION THEREOF” (SHENZHEN SHENXIN BIOTECHNOLOGY CO., LTD., priority 2020, published 2023)

tested on: HEK293 cells; test: Preliminary screening as mRNA vectors, EGFP mRNA transfection of HEK293 cells; assay type: cell-based; conditions: HEK293 cells, 96-well plates, EGFP mRNA 50 ng per well; percentage of GFP fluorescent cells relative to total number of cells (Hoechst)
Outline: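 Each well of HEK293 cells received 50 ng of EGFP mRNA. Efficiency was expressed as percent GFP-expressing cells over Hoechst-defined total cell number.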

| SMILES | Absolute mRNA transfection efficiency in HEK293 cells [%] |
| --- | --- |
| CCCCCCCCCCCCCCCSc1nc(NCCN(CC)CC)nc(SCCCCCCCC)n1 [Compound S8S15D7] | 0.0 |
| CCCCCCCCCCCCCCCSc1nc(NCCCN2CCOCC2)nc(SCCCCCCCC)n1 [Compound S8S15D8] | 8.0 |
| CCCCCCCCCCCCCCCSc1nc(NCCCN2CCN(C)CC2)nc(SCCCCCCCC)n1 [Compound S8S15D9] | 22.0 |
| CCCCCCCCCCCCCCCSc1nc(NCC2CCN(C)CC2)nc(SCCCCCCCC)n1 [Compound S8S15D10] | 64.0 |
| CCCCCCCCCCCCCCCCSc1nc(NCCN(C)C)nc(SCCCCCCCC)n1 [Compound S8S16D1] | 2.2 |
| CCCCCCCCCCCCCCCCSc1nc(NCCN2CCOCC2)nc(SCCCCCCCC)n1 [Compound S8S16D2] | 0.2 |
| CCCCCCCCCCCCCCCCSc1nc(NCCN2CCCC2)nc(SCCCCCCCC)n1 [Compound S8S16D3] | 37.3 |
| CCCCCCCCCCCCCCCCSc1nc(NCCN2CCCCC2)nc(SCCCCCCCC)n1 [Compound S8S16D4] | 2.1 |
| CCCCCCCCCCCCCCCCSc1nc(NCCN2CCN(C)CC2)nc(SCCCCCCCC)n1 [Compound S8S16D5] | 20.5 |
| CCCCCCCCCCCCCCCCSc1nc(NCCCN(C)C)nc(SCCCCCCCC)n1 [Compound S8S16D6] | 61.0 |
| CCCCCCCCCCCCCCCCSc1nc(NCCN(CC)CC)nc(SCCCCCCCC)n1 [Compound S8S16D7] | 0.5 |
| CCCCCCCCCCCCCCCCSc1nc(NCCCN2CCOCC2)nc(SCCCCCCCC)n1 [Compound S8S16D8] | 4.4 |
| CCCCCCCCCCCCCCCCSc1nc(NCC2CCN(C)CC2)nc(SCCCCCCCC)n1 [Compound S8S16D10] | 98.3 |
| CCCCCCCCCCCCCCCCCCSc1nc(NCCN(C)C)nc(SCCCCCCCC)n1 [Compound S8S18D1] | 3.9 |
| CCCCCCCCCCCCCCCCCCSc1nc(NCCN2CCOCC2)nc(SCCCCCCCC)n1 [Compound S8S18D2] | 0.0 |
| CCCCCCCCCCCCCCCCCCSc1nc(NCCN2CCCC2)nc(SCCCCCCCC)n1 [Compound S8S18D3] | 61.5 |
| CCCCCCCCCCCCCCCCCCSc1nc(NCCN2CCCCC2)nc(SCCCCCCCC)n1 [Compound S8S18D4] | 2.0 |
| CCCCCCCCCCCCCCCCCCSc1nc(NCCN2CCN(C)CC2)nc(SCCCCCCCC)n1 [Compound S8S18D5] | 27.5 |
| CCCCCCCCCCCCCCCCCCSc1nc(NCCCN(C)C)nc(SCCCCCCCC)n1 [Compound S8S18D6] | 19.1 |
| CCCCCCCCCCCCCCCCCCSc1nc(NCCN(CC)CC)nc(SCCCCCCCC)n1 [Compound S8S18D7] | 3.8 |
| CCCCCCCCCCCCCCCCCCSc1nc(NCCCN2CCOCC2)nc(SCCCCCCCC)n1 [Compound S8S18D8] | 4.2 |
| CCCCCCCCCCCCCCCCCCSc1nc(NCCCN2CCN(C)CC2)nc(SCCCCCCCC)n1 [Compound S8S18D9] | 28.1 |

| SMILES | Absolute mRNA transfection efficiency in HEK293 cells [%] |
| --- | --- |
| CCCCCCCCCCCCCCCCCCSc1nc(NCC2CCN(C)CC2)nc(SCCCCCCCC)n1 [Compound S8S18D10] | 59.6 |
| CCCCCCCCCSc1nc(NCCN(C)C)nc(SCCCCCCCCC)n1 [Compound S9S9D1] | 0.8 |
| CCCCCCCCCSc1nc(NCCN2CCOCC2)nc(SCCCCCCCCC)n1 [Compound S9S9D2] | 3.1 |
| CCCCCCCCCSc1nc(NCCN2CCCC2)nc(SCCCCCCCCC)n1 [Compound S9S9D3] | 4.5 |
| CCCCCCCCCSc1nc(NCCN2CCCCC2)nc(SCCCCCCCCC)n1 [Compound S9S9D4] | 2.1 |
| CCCCCCCCCSc1nc(NCCN2CCN(C)CC2)nc(SCCCCCCCCC)n1 [Compound S9S9D5] | 37.1 |
| CCCCCCCCCSc1nc(NCCCN(C)C)nc(SCCCCCCCCC)n1 [Compound S9S9D6] | 33.0 |
| CCCCCCCCCSc1nc(NCCN(CC)CC)nc(SCCCCCCCCC)n1 [Compound S9S9D7] | 3.6 |
| CCCCCCCCCSc1nc(NCCCN2CCOCC2)nc(SCCCCCCCCC)n1 [Compound S9S9D8] | 14.8 |
| CCCCCCCCCSc1nc(NCCCN2CCN(C)CC2)nc(SCCCCCCCCC)n1 [Compound S9S9D9] | 19.3 |
| CCCCCCCCCSc1nc(NCC2CCN(C)CC2)nc(SCCCCCCCCC)n1 [Compound S9S9D10] | 34.9 |
| CCCCCCCCCCSc1nc(NCCN(C)C)nc(SCCCCCCCCC)n1 [Compound S9S10D1] | 5.0 |
| CCCCCCCCCCSc1nc(NCCN2CCOCC2)nc(SCCCCCCCCC)n1 [Compound S9S10D2] | 2.5 |
| CCCCCCCCCCSc1nc(NCCN2CCCC2)nc(SCCCCCCCCC)n1 [Compound S9S10D3] | 70.1 |
| CCCCCCCCCCSc1nc(NCCN2CCCCC2)nc(SCCCCCCCCC)n1 [Compound S9S10D4] | 4.1 |
| CCCCCCCCCCSc1nc(NCCN2CCN(C)CC2)nc(SCCCCCCCCC)n1 [Compound S9S10D5] | 61.4 |
| CCCCCCCCCCSc1nc(NCCCN(C)C)nc(SCCCCCCCCC)n1 [Compound S9S10D6] | 74.6 |
| CCCCCCCCCCSc1nc(NCCN(CC)CC)nc(SCCCCCCCCC)n1 [Compound S9S10D7] | 2.8 |
| CCCCCCCCCCSc1nc(NCCCN2CCOCC2)nc(SCCCCCCCCC)n1 [Compound S9S10D8] | 9.8 |
| CCCCCCCCCCSc1nc(NCCCN2CCN(C)CC2)nc(SCCCCCCCCC)n1 [Compound S9S10D9] | 46.6 |
| CCCCCCCCCCSc1nc(NCC2CCN(C)CC2)nc(SCCCCCCCCC)n1 [Compound S9S10D10] | 47.2 |

tested on: HEK293 cells; test: Preliminary screening as DNA vectors, GFP transfection of HEK293 cells; assay type: cell-based; conditions: HEK293 cells; lipid/DOPE liposome with 75 ng plasmid DNA (psin-EGFP-IRES-Puro); number of cells expressing GFP divided by total number of nuclei (Hoechst)
Outline: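 Lipid + DOPE liposomes (NaOAc, pH 5.6) complexed w/ 75 ng psin-EGFP-IRES-Puro, 30 min RT; added to 3-5×10^4 HEK293/well, 37° C. Hoechst 0.2 μg/mL at 20-24 h, imaged after further 20-24 h. Efficiency = GFP+ cells / total nuclei.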

| SMILES | Absolute DNA transfection efficiency in HEK293 cells [%] |
| --- | --- |
| CCCCCCCCCCCCCCCSc1nc(NCCN(CC)CC)nc(SCCCCCCCC)n1 [Compound S8S15D7] | 13.8 |
| CCCCCCCCCCCCCCCSc1nc(NCCCN2CCOCC2)nc(SCCCCCCCC)n1 [Compound S8S15D8] | 23.0 |
| CCCCCCCCCCCCCCCSc1nc(NCCCN2CCN(C)CC2)nc(SCCCCCCCC)n1 [Compound S8S15D9] | 13.9 |
| CCCCCCCCCCCCCCCSc1nc(NCC2CCN(C)CC2)nc(SCCCCCCCC)n1 [Compound S8S15D10] | 32.1 |
| CCCCCCCCCCCCCCCCSc1nc(NCCN(C)C)nc(SCCCCCCCC)n1 [Compound S8S16D1] | 4.6 |
| CCCCCCCCCCCCCCCCSc1nc(NCCN2CCOCC2)nc(SCCCCCCCC)n1 [Compound S8S16D2] | 15.7 |
| CCCCCCCCCCCCCCCCSc1nc(NCCN2CCCC2)nc(SCCCCCCCC)n1 [Compound S8S16D3] | 20.7 |
| CCCCCCCCCCCCCCCCSc1nc(NCCN2CCCCC2)nc(SCCCCCCCC)n1 [Compound S8S16D4] | 10.2 |
| CCCCCCCCCCCCCCCCSc1nc(NCCN2CCN(C)CC2)nc(SCCCCCCCC)n1 [Compound S8S16D5] | 3.7 |
| CCCCCCCCCCCCCCCCSc1nc(NCCCN(C)C)nc(SCCCCCCCC)n1 [Compound S8S16D6] | 33.0 |
| CCCCCCCCCCCCCCCCSc1nc(NCCN(CC)CC)nc(SCCCCCCCC)n1 [Compound S8S16D7] | 11.8 |
| CCCCCCCCCCCCCCCCSc1nc(NCCCN2CCOCC2)nc(SCCCCCCCC)n1 [Compound S8S16D8] | 28.6 |
| CCCCCCCCCCCCCCCCSc1nc(NCC2CCN(C)CC2)nc(SCCCCCCCC)n1 [Compound S8S16D10] | 75.2 |
| CCCCCCCCCCCCCCCCCCSc1nc(NCCN(C)C)nc(SCCCCCCCC)n1 [Compound S8S18D1] | 7.6 |
| CCCCCCCCCCCCCCCCCCSc1nc(NCCN2CCOCC2)nc(SCCCCCCCC)n1 [Compound S8S18D2] | 0.9 |
| CCCCCCCCCCCCCCCCCCSc1nc(NCCN2CCCC2)nc(SCCCCCCCC)n1 [Compound S8S18D3] | 14.3 |
| CCCCCCCCCCCCCCCCCCSc1nc(NCCN2CCCCC2)nc(SCCCCCCCC)n1 [Compound S8S18D4] | 15.8 |
| CCCCCCCCCCCCCCCCCCSc1nc(NCCN2CCN(C)CC2)nc(SCCCCCCCC)n1 [Compound S8S18D5] | 9.6 |
| CCCCCCCCCCCCCCCCCCSc1nc(NCCCN(C)C)nc(SCCCCCCCC)n1 [Compound S8S18D6] | 8.2 |
| CCCCCCCCCCCCCCCCCCSc1nc(NCCN(CC)CC)nc(SCCCCCCCC)n1 [Compound S8S18D7] | 9.2 |
| CCCCCCCCCCCCCCCCCCSc1nc(NCCCN2CCOCC2)nc(SCCCCCCCC)n1 [Compound S8S18D8] | 18.7 |
| CCCCCCCCCCCCCCCCCCSc1nc(NCCCN2CCN(C)CC2)nc(SCCCCCCCC)n1 [Compound S8S18D9] | 17.7 |

| SMILES | Absolute DNA transfection efficiency in HEK293 cells [%] |
| --- | --- |
| CCCCCCCCCCCCCCCCCCSc1nc(NCC2CCN(C)CC2)nc(SCCCCCCCC)n1 [Compound S8S18D10] | 19.3 |
| CCCCCCCCCSc1nc(NCCN(C)C)nc(SCCCCCCCCC)n1 [Compound S9S9D1] | 12.9 |
| CCCCCCCCCSc1nc(NCCN2CCOCC2)nc(SCCCCCCCCC)n1 [Compound S9S9D2] | 6.8 |
| CCCCCCCCCSc1nc(NCCN2CCCC2)nc(SCCCCCCCCC)n1 [Compound S9S9D3] | 11.9 |
| CCCCCCCCCSc1nc(NCCN2CCCCC2)nc(SCCCCCCCCC)n1 [Compound S9S9D4] | 14.5 |
| CCCCCCCCCSc1nc(NCCN2CCN(C)CC2)nc(SCCCCCCCCC)n1 [Compound S9S9D5] | 12.5 |
| CCCCCCCCCSc1nc(NCCCN(C)C)nc(SCCCCCCCCC)n1 [Compound S9S9D6] | 5.6 |
| CCCCCCCCCSc1nc(NCCN(CC)CC)nc(SCCCCCCCCC)n1 [Compound S9S9D7] | 32.6 |
| CCCCCCCCCSc1nc(NCCCN2CCOCC2)nc(SCCCCCCCCC)n1 [Compound S9S9D8] | 19.1 |
| CCCCCCCCCSc1nc(NCCCN2CCN(C)CC2)nc(SCCCCCCCCC)n1 [Compound S9S9D9] | 19.3 |
| CCCCCCCCCSc1nc(NCC2CCN(C)CC2)nc(SCCCCCCCCC)n1 [Compound S9S9D10] | 11.3 |
| CCCCCCCCCCSc1nc(NCCN(C)C)nc(SCCCCCCCCC)n1 [Compound S9S10D1] | 8.6 |
| CCCCCCCCCCSc1nc(NCCN2CCOCC2)nc(SCCCCCCCCC)n1 [Compound S9S10D2] | 10.7 |
| CCCCCCCCCCSc1nc(NCCN2CCCC2)nc(SCCCCCCCCC)n1 [Compound S9S10D3] | 10.3 |
| CCCCCCCCCCSc1nc(NCCN2CCCCC2)nc(SCCCCCCCCC)n1 [Compound S9S10D4] | 13.3 |
| CCCCCCCCCCSc1nc(NCCN2CCN(C)CC2)nc(SCCCCCCCCC)n1 [Compound S9S10D5] | 27.6 |
| CCCCCCCCCCSc1nc(NCCCN(C)C)nc(SCCCCCCCCC)n1 [Compound S9S10D6] | 21.2 |
| CCCCCCCCCCSc1nc(NCCN(CC)CC)nc(SCCCCCCCCC)n1 [Compound S9S10D7] | 8.3 |
| CCCCCCCCCCSc1nc(NCCCN2CCOCC2)nc(SCCCCCCCCC)n1 [Compound S9S10D8] | 22.5 |
| CCCCCCCCCCSc1nc(NCCCN2CCN(C)CC2)nc(SCCCCCCCCC)n1 [Compound S9S10D9] | 34.1 |
| CCCCCCCCCCSc1nc(NCC2CCN(C)CC2)nc(SCCCCCCCCC)n1 [Compound S9S10D10] | 18.7 |
